The results in this text go back to ChEMBL document CHEMBL1142676, “Novel 2-alkylamino-1,4-benzoxazine derivatives as potent neuroprotective agents: structure-activity relationship studies” (J Med Chem, 2005).

The term logP denotes a log measure of how a compound divides between an organic and an aqueous phase.

Series [1] concerns HT-22. Briefly: In vitro safety index as ratio of MTC/PC50 was determined for HT-22 hippocampal cell cultures of mouse by LDH assay. It counts as functional.
In series [2] the test system is HT-22. Briefly: In vitro safety index as ratio of MTC/PC50 was determined for HT-22 hippocampal cell cultures of mouse by MTT reduction assay. It counts as functional.
Series [3] has as its system HT-22. Briefly: In vitro maximum tolerated concentration against HT-22 hippocampal cell cultures of mouse by LDH assay. In kind it is functional.
Series [4] concerns HT-22. The experiment in a line: In vitro maximum tolerated concentration against HT-22 hippocampal cell cultures of mouse by MTT reduction assay. In kind it is functional. On the technique in general: Tetrazolium assays rely on reduction of a dye to a coloured formazan, in cell work by metabolically active cells.
Series [5] deals with HT-22. Briefly: In vitro protective concentration of compound for HT-22 hippocampal cell cultures of mouse against 2 mM L-homocysteic acid in LDH assay. It counts as functional.
For series [6], the system named is HT-22. The experiment in a line: In vitro protective concentration of compound for HT-22 hippocampal cell cultures of mouse against 2 mM L-homocysteic acid in MTT reduction assay. In kind it is functional.
Series [7] deals with HT-22. The experiment in a line: In vitro toxic concentration against HT-22 hippocampal cell cultures of mouse by LDH assay. In kind it is functional. As to conditions: read-out: TC50 (the source's name).
The test system of series [8] is HT-22. Briefly: In vitro toxic concentration against HT-22 hippocampal cell cultures of mouse by MTT reduction assay. It counts as functional. The note with it: read-out: TC50 (the source's name).
Series [9] is described as follows: Partition coefficient (logP). In kind it is physicochemical. The note with it: octanol/water.

With `CC(C)(C)C1COc2c(NCCc3ccccc3)ccc(C(=O)c3ccccc3)c2N1` (configuration not stated), the Safety index in the series with HT-22 [1] is >62.5; in the series with HT-22 [2], >100. In addition, the MTC with HT-22 [3] and in the series with HT-22 [4] was >250 µM throughout. In addition, the PC50 with HT-22 [5] is 4 µM; in the series on HT-22 [6] it was 2.5 µM. Moreover, the CC50 in the series with HT-22 [7] and with HT-22 [8] was > 250 µM in each case. In series [9], this molecule had a logP of 5.28.
Regarding `O=C(c1ccccc1)c1ccc2c(c1O)NC(c1ccccc1)C(NCC(c1ccccc1)c1ccccc1)O2` (configuration not stated), the Safety index in the series on HT-22 [1] is on record as >50; in the series with HT-22 [2], >25. The MTC with HT-22 [3] and in the series on HT-22 [4] was >250 µM throughout. In addition, the PC50 is 5 µM in the series on HT-22 [5] and 10 µM with HT-22 [6]. The CC50 with HT-22 [7] and in the series with HT-22 [8] was > 250 µM each time.
Turning to `O=C(c1ccccc1)c1ccc2c(c1O)NC1(CCCCC1)C(NCC1CCCCC1)O2` (configuration not stated), the Safety index in the series with HT-22 [1] was found to be 667; in the series with HT-22 [2], 20.8. In addition, the MTC with HT-22 [3] was found to be 100 µM; with HT-22 [4], 5 µM. Also, the PC50 in the series on HT-22 [5] was determined as 0.15 µM; with HT-22 [6] it was 0.24 µM. Further, the CC50 with HT-22 [7] was > 250 µM; in the series on HT-22 [8], 16.5 µM.
With `CC1(C)Nc2c(ccc(C(=O)c3ccccc3)c2O)OC1N1CCCCC1` (configuration not stated), the Safety index is 24.4 in the series with HT-22 [1] and 3.1 with HT-22 [2]. Besides, the MTC in the series on HT-22 [3] came to 100 µM; in the series on HT-22 [4], 10 µM. Moreover, the PC50 with HT-22 [5] came out at 4.1 µM; in the series on HT-22 [6], 3.2 µM. In addition, the CC50 was 120 µM with HT-22 [7] and 72 µM in the series on HT-22 [8].
Consider `O=C(c1ccccc1)c1ccc2c(c1O)NC1(CCCCC1)C(N1CCOCC1)O2` (configuration not stated), for which the Safety index with HT-22 [1] amounted to 2.1; in the series with HT-22 [2] it was 1.8. Also, the MTC in the series with HT-22 [3] and with HT-22 [4] was 5 µM each time. Moreover, the figures for the PC50 in the series with HT-22 [5] and in the series with HT-22 [6] were 2.4 µM and 2.8 µM, respectively. The CC50 in the series on HT-22 [7] stood at 10.4 µM; in the series with HT-22 [8], 8.2 µM.
`COC(CNC1Oc2ccc(C(=O)c3ccccc3)c(O)c2NC1c1ccccc1)OC` (configuration not stated): the Safety index in the series with HT-22 [1] is recorded as >100; in the series with HT-22 [2] it was 20. Moreover, the values for the MTC in the series with HT-22 [3] and with HT-22 [4] were >250 µM and 100 µM, respectively. In addition, the PC50 was determined as 2.5 µM with HT-22 [5] and 5 µM with HT-22 [6]. For the same molecule, the CC50 in the series with HT-22 [7] and in the series on HT-22 [8] was > 250 µM in each case.
Turning to `CC(C)CNC1Oc2ccc(C(=O)c3ccccc3)c(O)c2NC1c1ccccc1` (configuration not stated), the values for the Safety index with HT-22 [1] and with HT-22 [2] were 1 and <1, respectively. In addition, the MTC in the series on HT-22 [3] worked out at 10 µM; in the series on HT-22 [4], 5 µM. For the same molecule, the PC50 in the series on HT-22 [5] and in the series on HT-22 [6] was 10 µM in each case. The results for the CC50 with HT-22 [7] and in the series on HT-22 [8] were 79 µM and 108 µM, respectively.
For `O=C(c1ccccc1)c1ccc2c(c1O)NC1(CCCCC1)C(O)O2` (configuration not stated), the Safety index came to 16.6 with HT-22 [1] and 6.2 in the series with HT-22 [2]. The results for the MTC with HT-22 [3] and in the series on HT-22 [4] were 50 µM and 25 µM, respectively. Moreover, the PC50 worked out at 3 µM in the series on HT-22 [5] and 4 µM in the series on HT-22 [6]. The CC50 with HT-22 [7] is > 250 µM; with HT-22 [8] it was 178 µM.
Turning to `CC1(C)Nc2c(ccc(C(=O)c3ccccc3)c2O)OC1NCCc1ccccc1` (configuration not stated), the Safety index with HT-22 [1] came out at 24.4; with HT-22 [2] it was 5. The MTC was 100 µM in the series with HT-22 [3] and 10 µM in the series on HT-22 [4]. The PC50 in the series with HT-22 [5] came to 4.1 µM; in the series on HT-22 [6], 2 µM. Moreover, the CC50 amounted to 199 µM in the series with HT-22 [7] and 66 µM in the series with HT-22 [8].
For the molecule `CC1(C)Nc2c(ccc(C(=O)c3ccccc3)c2O)OC1N1CCOCC1` (configuration not stated), the Safety index in the series with HT-22 [1] was 66.7; in the series with HT-22 [2], 5.9. Also, the MTC with HT-22 [3] is 100 µM; in the series on HT-22 [4] it was 10 µM. For the same molecule, the PC50 with HT-22 [5] was determined as 1.5 µM; in the series with HT-22 [6], 1.7 µM. Moreover, the CC50 came out at 190 µM in the series on HT-22 [7] and 75 µM in the series with HT-22 [8].
In the case of `CC(C)CNC1Oc2ccc(C(=O)c3ccccc3)c(O)c2NC1(C)C` (configuration not stated), the values for the Safety index in the series on HT-22 [1] and in the series on HT-22 [2] were 185 and 24.4, respectively. Moreover, the results for the MTC with HT-22 [3] and in the series on HT-22 [4] were 100 µM and 10 µM, respectively. Also, the PC50 in the series on HT-22 [5] turned out to be 0.54 µM; in the series with HT-22 [6] it was 0.41 µM. Also, the CC50 with HT-22 [7] is 160 µM; in the series on HT-22 [8], 45 µM.
Regarding `CC1(C)Nc2c(ccc(C(=O)c3ccccc3)c2O)OC1O` (configuration not stated), the figures for the Safety index in the series with HT-22 [1] and in the series with HT-22 [2] were 91 and 10.3, respectively. Besides, the values for the MTC in the series on HT-22 [3] and with HT-22 [4] were 100 µM and 10 µM, respectively. Besides, the PC50 was determined as 1.1 µM in the series on HT-22 [5] and 0.97 µM with HT-22 [6]. Besides, the CC50 in the series with HT-22 [7] was > 250 µM; with HT-22 [8], 48 µM.
Take `CN(CC1OCCO1)C1Oc2ccc(C(=O)c3ccccc3)c(O)c2NC1c1ccccc1` (configuration not stated): the Safety index in the series with HT-22 [1] is on record as >250; in the series with HT-22 [2], 200. In addition, the MTC was >250 µM in the series on HT-22 [3] and 100 µM with HT-22 [4]. In addition, the PC50 with HT-22 [5] was determined as 1 µM; with HT-22 [6], 0.5 µM. Besides, the CC50 in the series with HT-22 [7] and in the series with HT-22 [8] was > 250 µM each time. Further, the logP in [9] came out at 5.57.
For the molecule `O=C(c1ccccc1)c1ccc(NCc2ccccc2)c2c1NC1(CCCC1)CO2`, the Safety index in the series on HT-22 [1] is listed as >17.4; with HT-22 [2], >15.8. Besides, the MTC in the series on HT-22 [3] and in the series on HT-22 [4] was >250 µM in each case. For the same molecule, the PC50 in the series with HT-22 [5] amounted to 14.4 µM; with HT-22 [6], 15.8 µM. For the same molecule, the CC50 in the series with HT-22 [7] and in the series on HT-22 [8] was > 250 µM throughout. Also, the logP in series [9] worked out at 5.11.
Turning to `CN(CC1OCCO1)C1Oc2ccc(C(=O)c3ccccc3)c(O)c2NC12CCCCC2` (configuration not stated), the Safety index came out at 11.4 in the series with HT-22 [1] and 2 in the series with HT-22 [2]. The MTC with HT-22 [3] was 25 µM; in the series on HT-22 [4], 5 µM. For the same molecule, the figures for the PC50 in the series on HT-22 [5] and with HT-22 [6] were 2.2 µM and 2.4 µM, respectively. For the same molecule, the CC50 in the series with HT-22 [7] was > 250 µM; in the series with HT-22 [8] it was 25 µM.
Consider `O=C(c1ccccc1)c1ccc2c(c1O)NC1(CCCC1)C(NCC1CCCC1)O2` (configuration not stated), for which the values for the Safety index with HT-22 [1] and with HT-22 [2] were 30.5 and 3.6, respectively. For the same molecule, the MTC in the series on HT-22 [3] turned out to be 25 µM; with HT-22 [4], 5 µM. The PC50 was determined as 0.82 µM in the series with HT-22 [5] and 1.39 µM in the series with HT-22 [6]. The figures for the CC50 with HT-22 [7] and in the series on HT-22 [8] were 53 µM and 27 µM, respectively.
For `CC1(C)Nc2c(ccc(C(=O)c3ccccc3)c2O)OC1NC1CCCCC1` (configuration not stated), the Safety index came out at 47.6 in the series with HT-22 [1] and 4.2 in the series on HT-22 [2]. The MTC amounted to 100 µM in the series with HT-22 [3] and 10 µM in the series with HT-22 [4]. Besides, the PC50 in the series with HT-22 [5] was found to be 2.1 µM; with HT-22 [6], 2.4 µM. The results for the CC50 in the series on HT-22 [7] and in the series with HT-22 [8] were 120 µM and 29 µM, respectively.
As for `O=C(c1ccccc1)c1ccc2c(c1O)NC1(CCCCC1)C(N1CCCCC1)O2` (configuration not stated), the Safety index was >13.5 with HT-22 [1] and 8.1 in the series on HT-22 [2]. The MTC with HT-22 [3] is >250 µM; with HT-22 [4] it was 100 µM. The PC50 was found to be 18.5 µM in the series on HT-22 [5] and 12.3 µM in the series on HT-22 [6]. Further, the CC50 is > 250 µM in the series on HT-22 [7] and 250 µM with HT-22 [8].
